Values of other authors as cited in US20080318218A1, “Compositions and Methods for Inferring an Adverse Effect in Response to a Drug Treatment” (DNAPrint Genomics, Inc., priority 2004, published 2008).

What was measured:
[1] = human, in vivo
[2] = clinical trials
NO synthase = settings: ACE inhibitor-associated cough; P<0.01; not with placebo

For CC(C)c1c(C(=O)Nc2ccccc2)c(-c2ccccc2)c(-c2ccc(F)cc2)n1CC[C@@H](O)C[C@@H](O)CC(=O)O [Atorvastatin], the “patients exhibiting persistent and dose-dependent indications of hepatic stress (elevation in serum transaminase SGOT, ALTGPT)” value [1] is listed as “Approximately 0.7%”.
In the case of COCc1c(C(C)C)nc(C(C)C)c(/C=C/[C@@H](O)C[C@@H](O)CC(=O)O)c1-c1ccc(F)cc1 [Baycol, Cerivastatin], the “patients experiencing muscle discomfort and/or creatine kinase elevations in response to treatment” value [2] is given as “about 1%”.
For [Fe] [iron], the cough scores (NO synthase) is given as “significant reduction”.
